Where two headings read alike, the source gives them in different places.
How the values were obtained:
[1] = system: SK-N-SH cells exposed to R5 HIV-1 strain BaL; experiment: apoptosis of differentiated SK-N-SH cells exposed to HIV-1 BaL, FACS; format: cell-based; conditions: for apoptosis, share of SK-N-SH cells: day 5, 60% with HIV-1BaL alone
Source text: Finally, we exposed differentiated SK-N-SH cells to the R5 HIV-1 strain BaL, in the presence or absence of monomeric DAPTA, and assessed neuronal apoptosis. […] To compare the anti-apoptotic effect of monomeric DAPTA with other CCR5-binding molecules, we also tested the CCR5 antagonist TAK-779.

[2] = target: T1, CCR5 (Homo sapiens, UniProt P51681); experiment: CCR5 expression on SK-N-SH neuronal cells, 2D7 mAb staining; format: cell-based; parameters: CCR5 expression in these differentiated cells is limited and further reduced in the presence of DAPTA; endogenous in cells; host or cells: SK-N-SH (differentiated with retinoic acid)
Source text: To assess CCR5 expression on surface of neuronal cell lines, SK-N-SH were stained with 2D7 mAb in presence or in absence of DAPTA (at different doses) and TAK-779. SK-N-SH line has the potential of differentiating to neural cells in the presence of retinoic acid, and it has been used as a model of primary neurons.

[3] = system: CCR5-using HIV-1 strain, 81A; experiment: p24 antigen production in HIV-infected M/M (CCR5-using strain); format: cell-based
Protocol: (§1) Viral replication and production in HIV-infected M/M treated with DAPTA was assessed 14 and 21 days after infection for p24 antigen production.

[4] = aggregation of peptide in solution; format: physicochemical
Source text: These marginal clinical benefits were inexplicable in the context of the many successful in vitro studies and an explanation was sought. […] Therefore reduction to practice required that the non-obvious formation of multimers must be remedied for considerations of both patient safety and drug efficacy.

[5] = system: HIV; conditions: doses as high as 10^−7 M; cited from earlier work
[6] = system: HIV; conditions: main endpoint of the small trial; cited from earlier work
[7] = system: CXCR4-using (X4) strains, HIV-1 IIIB; experiment: p24 antigen production in HIV-infected M/M (CXCR4-using strain); format: cell-based; conditions: M/M infected by HIV-1 IIIB; data not shown
Protocol: as §1

[8] = system: HIV; conditions: frozen stored plasma samples; p=.037; cited from earlier work
[9] = target: T1, CCR5; experiment: competition between CCR5-FITC antibody and DAPTA in M/M, flow cytometry; format: cell-based; parameters: endogenous in cells; host or cells: human primary monocyte/macrophages (M/M)
Source text: To confirm that monomeric DAPTA binding is specific for CCR5, a competition experiment between CCR5-FITC antibody and DAPTA in M/M was done. […] Treatment with monomeric DAPTA reduced CCR % expression to 9% with 10^−12 M DAPTA, compared with 35% of mock-treated M/M (FIG. 2) (p≦0.001).

[10] = system: HIV-1; conditions: 18 hours postinfection, vs not-treated cells
Protocol: Eighteen hours postinfection, genomic DNA was extracted and two-fold dilution of cell equivalents (range 1×10^6-1.25×10^5) were amplified in an inverse/nested PCR specific for a conserved gag region of the viral genome. Semi-quantitative analyses of HIV-1 DNA in M/M were performed by comparison of DNA amplification products from infected cells, standardized by PCR for β-actin, to standards of amplified U1 DNA copies and cell numbers. The UN-SCAN IT-gel software (Silk Scientific Inc.) was used to determine band densities (FIG. 3A).

T1 sequence (P51681 whole entry): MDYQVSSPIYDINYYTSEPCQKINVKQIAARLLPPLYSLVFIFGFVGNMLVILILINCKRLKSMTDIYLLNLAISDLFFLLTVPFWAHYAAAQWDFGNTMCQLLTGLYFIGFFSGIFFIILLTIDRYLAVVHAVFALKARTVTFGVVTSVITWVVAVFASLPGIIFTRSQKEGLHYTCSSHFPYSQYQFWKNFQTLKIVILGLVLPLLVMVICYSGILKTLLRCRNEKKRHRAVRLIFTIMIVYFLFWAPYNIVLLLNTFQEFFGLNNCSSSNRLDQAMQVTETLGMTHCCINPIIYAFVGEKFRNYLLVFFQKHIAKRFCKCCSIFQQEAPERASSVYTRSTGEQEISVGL

Row | Molecule | inhibition of apoptosis ([1]; 1.8×10^−6 M, vs cells not treated) [%] | inhibition of CCR5 expression ([2]; 1.8×10^−6 M) | reduction of p24 gag antigen production of control M/M cultures ([3]; HIV-1 81A, doses as low as 10^−14 M, 14 and 21 days after infection) [%] | effective dose lower than described in earlier reports (enhanced in vitro potency) ([3]; monomeric formulation vs earlier reports) | aggregation in solution [4] | antiviral effects (Sodroski) [5] | plasma viral load [6] | effect on HIV-1 p24 antigen production [7] | reduction in viral load [8] [log 10] | inhibition of CCR5-binding, maximum ([9]; 10^−12 M) [%] | CCR5 expression (CCR5+ M/M) ([9]; 10^−12 M, mock-treated 35%) [%] | CCR5+ positive M/M ([9]; DAPTA treated M/M, mock-treated 35%) [%] | inhibition of CCR5-binding ([9]; overall, several DAPTA doses) | decline of HIV-1 DNA per 2.5×10^5 cells ([10]; 10^−7 M) [%] | decline of HIV-1 DNA per 2.5×10^5 cells ([10]; 10^−9 M) [%] | apoptosis, share of SK-N-SH cells ([1]; 10^−3M) [%] | apoptosis, share of SK-N-SH cells ([1]; 10^−12M) [%] | inhibition of CCR5 expression ([2]; 10^−12M, vs unexposed SK-N-SH) [%] | inhibition of CCR5 expression ([2]; 10^−13M, vs unexposed SK-N-SH) [%]
1 | Cc1ccc(-c2ccc3c(c2)C=C(C(=O)Nc2ccc(C[N+](C)(C)C4CCOCC4)cc2)CCC3)cc1.[Cl-] [TAK-779, reference compound] | 30 | about 61% | – | – | – | – | – | – | – | – | – | – | – | – | – | – | – | – | –
2 | Dala1-peptide T-amide [DAPTA] | – | – | ~80 | 100-100,000 fold | quickly formed aggreagates in solution | failed to find antiviral effects | failing to reduce plasma viral load | no effect | 0.54 | 73 | 9 | 20 | about 43% | 64 | 70 | 28 | 26 | 72 | 68.5

Reference: patent US8178497B2, “Method of treating HIV in drug resistant non plasma viral reservoirs with monomeric DAPTA” (Rapid Pharmaceuticals AG, priority 2007, dated 2012)
